In patent US11214572B2, “7-site substituted pyrrole triazine compounds or pharmaceutically acceptable salts thereof, and preparation method thereof and uses thereof” (SHANGHAI INSTITUTE OF MATERIA MEDICA, CHINESE ACADEMY OF …, priority 2017, dated 2022):
Several values for one entry are separate records, joined by “and”; a condition that tells them apart may be missing. Identical values can stand only once. Entries after “also recorded” stand apart in the source; their conditions may differ. Like-named read-outs stand apart in the source and are kept apart here.

How the values were obtained:
[1] = Preliminary pharmacokinetic test, intravenous injection; assay type: in vivo, SD rats; settings: rats, intravenous injection 5 mg/kg, tested as monomesylate
Description: (§1) 1. 14 healthy SD rats, male, weigh 200-220 g, were taken to be randomly divided into 4 groups, 3-4 in each group, and were administered the tested compound P-17 and compound CYH33 (compared with compound P-17, missing a methyl group on 7-position) via intragastric administration (10 mg/kg) and intravenous injection (5 mg/kg) respectively, the specific arrangements are shown in the following table 3:
(§2) The rats were fasted for 12 h before experiment, water was taken freely. The rats were fed 2 h after dosing.
Dosing via intravenous: 5 min, 0.25 h, 0.5 h, 1.0 h, 2.0 h, 4.0 h, 6.0 h, 8.0 h, and 24 h after dosing.
(§3) At the above setting time points, 0.3 ml of venous blood was taken from the retroorbital venous plexus of the rat, and placed in a heparinized test tube, centrifuged at 11,000 rpm for 5 min, then the plasma was separated, and frozen in a refrigerator at −20° C.
(§4) LC/MS/MS method was used to determine the concentration of the compounds in the plasma of rats.
(§5) The non-compartment model of Phoenix 1.3 software (Pharsight Corporation, USA) was used to calculate the pharmacokinetic parameters after dosing.

[2] = Preliminary pharmacokinetic test, intragastric administration; assay type: in vivo, SD rats; settings: rats, 10 mg/kg versus 5 mg/kg intravenous; monomesylate
Description: as §1, §2
Dosing via intragastric administration: 0.25 h, 0.5 h, 1.0 h, 2.0 h, 3.0 h, 4.0 h, 6.0 h, 8.0 h, and 24 h after dosing.
as §3, §4, §5

PI3Kγ = PI3Kγ (Homo sapiens, UniProt P48736); assay: PI3K kinase activity, γ isoform; assay type: biochemical; settings: for inhibition at 0.1 µM: compound 100 nM, read-out: IH (%) @ 100 nM, γ;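 as to all read-outs here: kinase reaction run in 384-well plates, with inhibition normalised between the 0% and 100% reference reactions. IC50 derived from a ten-point, fourfold serial dilution series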
Chain of PI3Kγ (P48736 whole entry, canonical isoform): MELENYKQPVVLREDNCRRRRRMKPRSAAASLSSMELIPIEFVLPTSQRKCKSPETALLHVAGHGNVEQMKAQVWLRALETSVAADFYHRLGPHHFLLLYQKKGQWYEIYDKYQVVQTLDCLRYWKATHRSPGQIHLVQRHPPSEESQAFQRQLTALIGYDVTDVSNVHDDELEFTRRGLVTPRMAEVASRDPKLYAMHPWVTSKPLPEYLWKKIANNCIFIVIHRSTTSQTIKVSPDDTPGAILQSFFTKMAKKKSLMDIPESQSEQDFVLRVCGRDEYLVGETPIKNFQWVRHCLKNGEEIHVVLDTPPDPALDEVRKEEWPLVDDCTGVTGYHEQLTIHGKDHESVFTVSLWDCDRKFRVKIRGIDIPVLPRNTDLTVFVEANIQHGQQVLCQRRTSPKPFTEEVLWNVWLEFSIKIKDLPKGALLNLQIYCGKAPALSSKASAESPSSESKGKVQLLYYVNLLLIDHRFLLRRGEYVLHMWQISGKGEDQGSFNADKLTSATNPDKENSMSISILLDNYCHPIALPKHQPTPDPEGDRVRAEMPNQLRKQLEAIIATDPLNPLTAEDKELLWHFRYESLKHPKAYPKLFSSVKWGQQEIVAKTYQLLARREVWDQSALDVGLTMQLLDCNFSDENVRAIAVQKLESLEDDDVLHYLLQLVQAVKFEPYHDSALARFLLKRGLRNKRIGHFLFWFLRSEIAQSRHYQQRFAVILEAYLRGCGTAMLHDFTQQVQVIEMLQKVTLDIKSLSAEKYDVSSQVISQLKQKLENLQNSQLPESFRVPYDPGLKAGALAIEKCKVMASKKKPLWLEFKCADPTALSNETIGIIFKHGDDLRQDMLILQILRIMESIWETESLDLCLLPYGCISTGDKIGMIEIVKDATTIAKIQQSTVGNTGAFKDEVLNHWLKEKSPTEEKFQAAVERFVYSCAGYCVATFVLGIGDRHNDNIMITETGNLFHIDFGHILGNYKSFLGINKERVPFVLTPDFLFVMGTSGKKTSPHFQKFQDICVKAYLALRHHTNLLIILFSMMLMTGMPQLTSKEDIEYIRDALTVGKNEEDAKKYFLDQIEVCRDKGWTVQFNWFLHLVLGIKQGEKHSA
Description: (§6) Concentration setting for preliminary screening: the compounds to be tested were dissolved in DMSO (dimethyl sulfoxide) to 100 μM or 10 μM as storage solutions; for each one, 2 μL was taken to be added to 48 μL of 1× Reaction Buffer to obtain a 4 μM or 400 nM compound solution containing 4% DMSO. After well mixing, the mixture was diluted with 4% DMSO in 1× Reaction Buffer to obtain a 4 μM or 400 nM compound solution. 5 μL of each diluted solution was taken to be added to a 384-well plate, so that the final concentration of the compound in the final 20 μL of the kinase reaction system was 1 μM and 100 nM or 100 nM and 20 nM, respectively, and containing 1% DMSO.
(§7) The compounds to be tested were dissolved in DMSO to 1 mM or 10 mM as working solutions, 1 μL of each working solution was taken to be added to 24 μl of 1× Kinase Buffer A to obtain a 40 μM or 400 μM compound solution containing 4% DMSO. The compound solution was diluted by 4× gradient in sequence, 10 dilution concentrations.
(§8) Calculation of the Inhibition Rate • The inhibitory rate was calculated by the following formula: Inhibitory rate=(ERsample−ER0%)/(ER100%−ER0%)×100%

PI3Kα = PI3Kα (Homo sapiens, UniProt P42336); assay: PI3K kinase activity, α isoform; settings: for inhibition at 0.02 µM: read-out: IH (%) @ 20 nM, α
Chain of PI3Kα (P42336 whole entry, canonical isoform): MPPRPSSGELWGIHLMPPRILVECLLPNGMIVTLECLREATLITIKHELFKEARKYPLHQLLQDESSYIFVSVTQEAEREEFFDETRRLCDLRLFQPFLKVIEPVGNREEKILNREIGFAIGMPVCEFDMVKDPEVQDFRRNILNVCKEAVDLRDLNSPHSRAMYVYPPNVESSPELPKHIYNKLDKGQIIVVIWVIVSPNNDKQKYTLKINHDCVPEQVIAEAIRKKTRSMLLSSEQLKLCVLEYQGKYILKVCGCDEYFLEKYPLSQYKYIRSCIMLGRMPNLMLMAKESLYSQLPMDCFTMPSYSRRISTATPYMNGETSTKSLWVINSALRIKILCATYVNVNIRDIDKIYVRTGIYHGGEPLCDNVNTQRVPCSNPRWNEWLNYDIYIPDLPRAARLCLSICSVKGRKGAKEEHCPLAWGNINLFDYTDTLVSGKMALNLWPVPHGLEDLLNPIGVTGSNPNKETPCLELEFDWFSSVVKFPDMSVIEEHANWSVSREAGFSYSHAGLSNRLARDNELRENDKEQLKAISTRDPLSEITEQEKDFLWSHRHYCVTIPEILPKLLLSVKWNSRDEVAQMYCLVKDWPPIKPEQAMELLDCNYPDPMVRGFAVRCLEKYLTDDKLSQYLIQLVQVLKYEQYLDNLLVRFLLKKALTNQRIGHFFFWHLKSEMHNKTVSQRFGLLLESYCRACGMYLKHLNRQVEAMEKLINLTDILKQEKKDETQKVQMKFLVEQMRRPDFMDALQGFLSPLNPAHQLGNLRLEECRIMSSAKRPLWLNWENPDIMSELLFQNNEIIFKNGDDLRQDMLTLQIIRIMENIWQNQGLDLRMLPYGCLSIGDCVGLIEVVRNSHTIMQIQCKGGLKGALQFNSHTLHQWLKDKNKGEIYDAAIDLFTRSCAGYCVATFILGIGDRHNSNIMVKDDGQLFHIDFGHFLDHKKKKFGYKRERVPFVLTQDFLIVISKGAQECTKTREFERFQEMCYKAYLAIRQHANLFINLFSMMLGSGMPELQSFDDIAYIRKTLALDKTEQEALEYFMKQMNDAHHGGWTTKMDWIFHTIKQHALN
Chain of PI3Kα (P27986 whole entry partner, canonical isoform): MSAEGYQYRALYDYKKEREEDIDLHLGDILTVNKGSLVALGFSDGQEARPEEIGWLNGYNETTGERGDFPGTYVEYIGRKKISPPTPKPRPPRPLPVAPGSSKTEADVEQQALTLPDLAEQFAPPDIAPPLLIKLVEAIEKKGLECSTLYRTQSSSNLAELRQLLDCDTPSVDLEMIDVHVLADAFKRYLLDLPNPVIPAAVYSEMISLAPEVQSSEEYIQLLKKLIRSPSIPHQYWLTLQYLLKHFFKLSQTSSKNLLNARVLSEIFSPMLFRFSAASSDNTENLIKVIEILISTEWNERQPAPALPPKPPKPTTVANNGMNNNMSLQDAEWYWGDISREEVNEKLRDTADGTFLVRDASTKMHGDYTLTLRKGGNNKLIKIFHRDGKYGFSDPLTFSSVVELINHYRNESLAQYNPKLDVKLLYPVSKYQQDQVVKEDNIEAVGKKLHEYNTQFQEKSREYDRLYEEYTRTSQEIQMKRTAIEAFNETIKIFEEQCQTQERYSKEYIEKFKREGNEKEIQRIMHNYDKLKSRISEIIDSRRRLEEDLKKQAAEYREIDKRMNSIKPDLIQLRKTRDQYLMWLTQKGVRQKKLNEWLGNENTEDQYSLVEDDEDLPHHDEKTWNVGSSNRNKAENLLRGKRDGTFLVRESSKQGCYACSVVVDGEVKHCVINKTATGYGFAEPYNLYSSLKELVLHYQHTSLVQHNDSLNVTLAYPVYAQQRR
Description: as §6, §7, §8

PI3Kδ = PI3Kδ (Homo sapiens, UniProt O00329); assay: PI3K kinase activity, δ isoform; settings: for inhibition at 0.02 µM: read-out: IH (%) @ 20 nM, δ; for selectivity for PI3Kδ (in words): versus other PI3K isoforms, from Tables 1 and 2
Chain of PI3Kδ (O00329 whole entry, canonical isoform): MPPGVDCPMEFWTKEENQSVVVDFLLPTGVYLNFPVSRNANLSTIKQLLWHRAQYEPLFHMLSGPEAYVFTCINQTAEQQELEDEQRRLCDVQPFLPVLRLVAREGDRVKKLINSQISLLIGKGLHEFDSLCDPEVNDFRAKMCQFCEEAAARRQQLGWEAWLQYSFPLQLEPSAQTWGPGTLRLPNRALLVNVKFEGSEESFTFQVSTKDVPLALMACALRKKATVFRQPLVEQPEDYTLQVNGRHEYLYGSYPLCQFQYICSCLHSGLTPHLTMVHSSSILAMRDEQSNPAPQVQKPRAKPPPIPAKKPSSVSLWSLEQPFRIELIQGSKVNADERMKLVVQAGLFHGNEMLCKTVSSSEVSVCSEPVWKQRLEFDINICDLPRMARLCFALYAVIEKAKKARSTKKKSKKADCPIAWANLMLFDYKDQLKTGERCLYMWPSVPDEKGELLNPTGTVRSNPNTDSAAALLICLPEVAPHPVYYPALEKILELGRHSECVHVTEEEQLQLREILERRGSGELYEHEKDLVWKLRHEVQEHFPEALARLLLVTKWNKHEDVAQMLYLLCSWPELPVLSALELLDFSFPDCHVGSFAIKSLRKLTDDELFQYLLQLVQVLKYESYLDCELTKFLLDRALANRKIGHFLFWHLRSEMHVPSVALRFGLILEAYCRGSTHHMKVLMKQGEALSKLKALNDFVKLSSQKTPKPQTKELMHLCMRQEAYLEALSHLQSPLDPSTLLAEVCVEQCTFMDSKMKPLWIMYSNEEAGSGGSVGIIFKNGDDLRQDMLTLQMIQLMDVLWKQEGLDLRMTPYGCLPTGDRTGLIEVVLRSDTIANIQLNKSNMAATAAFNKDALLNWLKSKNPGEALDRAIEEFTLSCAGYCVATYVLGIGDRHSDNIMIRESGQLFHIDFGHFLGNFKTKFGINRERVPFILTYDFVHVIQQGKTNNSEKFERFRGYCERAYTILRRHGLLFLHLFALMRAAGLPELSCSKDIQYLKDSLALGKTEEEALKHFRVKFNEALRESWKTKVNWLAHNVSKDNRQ
Chain of PI3Kδ (P27986 whole entry partner, canonical isoform): as the sequence (P27986 whole entry partner, canonical isoform) above
Description: as §6, §7, §8

PI3Kβ = PI3Kβ (Homo sapiens, UniProt P42338); assay: PI3K kinase activity, β isoform; settings: for inhibition at 0.1 µM: read-out: IH (%) @ 100 nM, β;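 as to all read-outs here: kinase reaction containing 1% DMSO, read as an emission ratio, with inhibition scaled between the 0% and 100% control ratios. IC50 values come from a ten-point fourfold dilution series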
Chain of PI3Kβ (P42338 whole entry, canonical isoform): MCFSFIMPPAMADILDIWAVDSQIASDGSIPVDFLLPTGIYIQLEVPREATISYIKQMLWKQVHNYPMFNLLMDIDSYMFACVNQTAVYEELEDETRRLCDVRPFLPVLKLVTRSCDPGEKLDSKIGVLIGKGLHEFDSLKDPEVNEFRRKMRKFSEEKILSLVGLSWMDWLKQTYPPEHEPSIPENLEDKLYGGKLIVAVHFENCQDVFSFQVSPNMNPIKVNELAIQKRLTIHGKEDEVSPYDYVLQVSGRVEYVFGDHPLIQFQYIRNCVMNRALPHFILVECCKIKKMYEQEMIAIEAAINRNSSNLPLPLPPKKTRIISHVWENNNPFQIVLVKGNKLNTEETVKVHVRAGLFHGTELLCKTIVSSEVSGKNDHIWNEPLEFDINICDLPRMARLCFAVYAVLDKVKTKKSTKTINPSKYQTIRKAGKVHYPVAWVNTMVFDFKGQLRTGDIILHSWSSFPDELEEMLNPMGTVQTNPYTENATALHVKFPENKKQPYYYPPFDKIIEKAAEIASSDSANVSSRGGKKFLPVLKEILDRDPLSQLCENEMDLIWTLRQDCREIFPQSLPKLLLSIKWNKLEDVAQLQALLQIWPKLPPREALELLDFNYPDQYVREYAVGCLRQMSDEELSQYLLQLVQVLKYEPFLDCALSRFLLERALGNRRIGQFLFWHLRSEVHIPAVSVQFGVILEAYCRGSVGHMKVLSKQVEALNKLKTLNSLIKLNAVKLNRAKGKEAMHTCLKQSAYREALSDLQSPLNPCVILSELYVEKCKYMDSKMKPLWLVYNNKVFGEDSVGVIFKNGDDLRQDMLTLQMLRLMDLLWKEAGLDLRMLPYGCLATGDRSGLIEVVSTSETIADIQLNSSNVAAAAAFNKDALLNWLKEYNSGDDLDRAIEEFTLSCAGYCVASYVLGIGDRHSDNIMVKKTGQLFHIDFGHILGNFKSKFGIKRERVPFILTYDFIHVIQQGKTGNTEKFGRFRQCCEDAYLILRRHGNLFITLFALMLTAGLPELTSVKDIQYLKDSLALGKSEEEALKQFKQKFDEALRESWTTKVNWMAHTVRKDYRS
Chain of PI3Kβ (P27986 whole entry partner, canonical isoform): as the sequence (P27986 whole entry partner, canonical isoform) above
Description: as §6, §7, §8

[3] = male, SD, rat, plasma, iv, 5 mg/kg, individual animal

Structure (SMILES): COC(=O)Nc1cc(C(F)(F)F)c(-c2nc(N3CCOCC3)c3cc(CN4CCN(S(C)(=O)=O)CC4)cn3n2)cn1 [CYH33, reference compound]
- AUC(0-t) ([1]; male, SD, rat, plasma, iv, 5 mg/kg, Mean): 3540 ng·h/mL
- MRT ([1]; male, SD, rat, plasma, iv, 5 mg/kg, Mean, read-out: MRT): 1.31 h
- AUC(0-inf) [1, 3]: 2850 ng·h/mL
- AUC(0-t) [1, 3]: 2850 ng·h/mL
- clearance [1, 3]: 29.2 mL/min/kg
- half-life [1, 3]: 0.83 h
- MRT ([1]; male, SD, rat, plasma, iv, 5 mg/kg, individual animal, read-out: MRT): 1.1 h
- Vd ([1]; male, SD, rat, plasma, iv, 5 mg/kg, individual animal, read-out: Vss): 1.93 L/kg
- AUC 0 − ∞ ([1]; Mean): 3559 ng·h/mL
- Cl ([1]; Mean): 24 mL/min/kg
- T1/2 ([1]; Mean): 0.982 h
- Vss ([1]; Mean): 1.843 L/kg
- AUC 0 − t ([1]; individual animal, 5 mg/kg): 3645 ng·h/mL and 4142 ng·h/mL
- AUC 0 − ∞ ([1]; individual animal, 5 mg/kg): 3655 ng·h/mL and 4172 ng·h/mL
- Cl ([1]; individual animal, 5 mg/kg): 22.8 mL/min/kg and 20 mL/min/kg
- MRT ([1]; individual animal, 5 mg/kg): 1.26 h and 1.57 h
- T1/2 ([1]; individual animal, 5 mg/kg): 0.95 h and 1.16 h
- Vss ([1]; individual animal, 5 mg/kg): 1.72 L/kg and 1.88 L/kg
- F (absolute bioavailability) [2]: 36.9%

Structure (SMILES): Cc1c(CNCCCN(C)C)cc2c(N3CCOCC3)nc(-c3cnc(N)cc3C(F)(F)F)nn12 [Compound P-2]
- IC50 (PI3Kγ): 37600 nM
- inhibition at 0.1 µM (PI3Kγ): 0.62%
- IC50 (PI3Kα): 321 nM
- inhibition at 0.02 µM (PI3Kα): 18.7%
- IC50 (PI3Kδ): 36.6 nM
- inhibition at 0.02 µM (PI3Kδ): 46%
- IC50 (PI3Kβ): 2140 nM
- inhibition at 0.1 µM (PI3Kβ): 4.74%

Structure (SMILES): COCCCNCc1cc2c(N3CCOCC3)nc(-c3cnc(N)cc3C(F)(F)F)nn2c1C [Compound P-3]
- inhibition at 0.1 µM (PI3Kγ): 2.94%
- inhibition at 0.02 µM (PI3Kα): 6.72%
- inhibition at 0.02 µM (PI3Kδ): 39.8%
- inhibition at 0.1 µM (PI3Kβ): -0.12%

Structure (SMILES): Cc1c(CN2CCC(C(C)(C)O)CC2)cc2c(N3CCOCC3)nc(-c3cnc(N)cc3C(F)(F)F)nn12 [Compound P-5]
- IC50 (PI3Kγ): 4830 nM
- inhibition at 0.1 µM (PI3Kγ): -2.33%
- IC50 (PI3Kα): 424 nM
- inhibition at 0.02 µM (PI3Kα): -0.6%
- IC50 (PI3Kδ): 19.6 nM
- inhibition at 0.02 µM (PI3Kδ): 53.2%
- selectivity for PI3Kδ (in words) (PI3Kδ): selective inhibitory effect on PI3Kδ; also recorded: good selectivities for PI3Kδ
- IC50 (PI3Kβ): 1360 nM
- inhibition at 0.1 µM (PI3Kβ): 14.9%

Structure (SMILES): CCN1CCN(Cc2cc3c(N4CCOCC4)nc(-c4cnc(N)cc4C(F)(F)F)nn3c2C)CC1 [Compound P-6]
- IC50 (PI3Kγ): 9870 nM
- inhibition at 0.1 µM (PI3Kγ): -4.8%
- IC50 (PI3Kα): 624 nM
- inhibition at 0.02 µM (PI3Kα): 69.7%
- IC50 (PI3Kδ): 35.3 nM
- inhibition at 0.02 µM (PI3Kδ): 41.4%
- selectivity for PI3Kδ (in words) (PI3Kδ): selective inhibitory effect on PI3Kδ; also recorded: good selectivities for PI3Kδ
- IC50 (PI3Kβ): 4570 nM
- inhibition at 0.1 µM (PI3Kβ): 11.8%

Structure (SMILES): Cc1c(CN2CCC(N(C)C)CC2)cc2c(N3CCOCC3)nc(-c3cnc(N)cc3C(F)(F)F)nn12 [Compound P-7]
- IC50 (PI3Kγ): 15300 nM
- inhibition at 0.1 µM (PI3Kγ): -7.96%
- IC50 (PI3Kα): 439 nM
- inhibition at 0.02 µM (PI3Kα): 3.6%
- IC50 (PI3Kδ): 27.6 nM
- inhibition at 0.02 µM (PI3Kδ): 53.6%
- selectivity for PI3Kδ (in words) (PI3Kδ): selective inhibitory effect on PI3Kδ; also recorded: good selectivities for PI3Kδ
- IC50 (PI3Kβ): 3460 nM
- inhibition at 0.1 µM (PI3Kβ): 3.43%

Structure (SMILES): Cc1c(CN2CCN(S(C)(=O)=O)CC2)cc2c(N3CCOCC3)nc(-c3cnc(N)cc3C(F)(F)F)nn12 [Compound P-9]
- IC50 (PI3Kγ): 283 nM
- inhibition at 0.1 µM (PI3Kγ): 31.4%
- IC50 (PI3Kα): 26.4 nM
- inhibition at 0.02 µM (PI3Kα): 68.9%
- IC50 (PI3Kδ): 23.7 nM
- inhibition at 0.02 µM (PI3Kδ): 51.2%
- IC50 (PI3Kβ): 1190 nM
- inhibition at 0.1 µM (PI3Kβ): 12.8%

Structure (SMILES): Cc1c(CN2CCN(S(C)(=O)=O)CC2)cc2c(N3CCOC[C@@H]3C)nc(-c3cnc(N)cc3C(F)(F)F)nn12 [Compound P-10]
- IC50 (PI3Kγ): 202 nM
- inhibition at 0.1 µM (PI3Kγ): 32.1%
- IC50 (PI3Kα): 104 nM
- inhibition at 0.02 µM (PI3Kα): 80.5%
- IC50 (PI3Kδ): 79.7 nM
- inhibition at 0.02 µM (PI3Kδ): 39.7%
- IC50 (PI3Kβ): 1770 nM
- inhibition at 0.1 µM (PI3Kβ): 7.84%
